Experimental data from paper PMC6501587 (The Journal of neuroscience : the official journal of the …, 2009).
Numbering of substitutions follows the chain as printed. “Also recorded” adds a separate entry of the source. Like-named read-outs stand apart in the source and are kept apart here.

Experiments:
[1] = target: T1, P2X2bR (Rattus norvegicus, UniProt P49653, DEL370-438); type: cell-based; conditions: oocytes
T1 sequence (P49653 with tags, fused parts or gaps DEL370-438): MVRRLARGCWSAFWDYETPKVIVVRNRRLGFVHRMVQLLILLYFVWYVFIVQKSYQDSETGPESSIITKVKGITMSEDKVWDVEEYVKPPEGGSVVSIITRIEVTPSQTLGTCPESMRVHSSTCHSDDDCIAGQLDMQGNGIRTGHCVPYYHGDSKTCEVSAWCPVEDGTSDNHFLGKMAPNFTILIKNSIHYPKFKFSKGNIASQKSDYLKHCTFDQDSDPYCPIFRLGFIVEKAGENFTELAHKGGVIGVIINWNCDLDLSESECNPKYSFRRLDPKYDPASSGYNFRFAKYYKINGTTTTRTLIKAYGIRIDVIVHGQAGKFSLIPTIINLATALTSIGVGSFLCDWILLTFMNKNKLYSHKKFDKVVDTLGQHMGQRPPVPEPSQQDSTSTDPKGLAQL

[2] = tested on: P2X4/2b chimera; type: cell-based, rat; conditions: oocytes
[3] = target: T2, P2X4R (Rattus norvegicus, UniProt P51577); type: cell-based; conditions: oocytes
T2 sequence (P51577 1-388): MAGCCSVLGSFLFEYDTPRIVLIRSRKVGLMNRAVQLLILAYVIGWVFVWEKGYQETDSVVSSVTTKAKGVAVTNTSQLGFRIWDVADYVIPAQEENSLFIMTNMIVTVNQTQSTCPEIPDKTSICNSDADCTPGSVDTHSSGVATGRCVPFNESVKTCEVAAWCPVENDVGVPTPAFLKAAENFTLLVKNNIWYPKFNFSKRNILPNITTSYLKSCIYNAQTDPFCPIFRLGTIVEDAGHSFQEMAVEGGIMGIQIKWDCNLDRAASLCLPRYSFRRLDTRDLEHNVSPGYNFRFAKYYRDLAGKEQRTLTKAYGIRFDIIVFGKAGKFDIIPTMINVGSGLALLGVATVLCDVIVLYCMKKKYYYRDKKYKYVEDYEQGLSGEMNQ

[4] = target: T3, P2X2a-C430A (Rattus norvegicus, UniProt P49653, C430A); type: cell-based; conditions: oocytes
T3 sequence (P49653 1-472 C430A): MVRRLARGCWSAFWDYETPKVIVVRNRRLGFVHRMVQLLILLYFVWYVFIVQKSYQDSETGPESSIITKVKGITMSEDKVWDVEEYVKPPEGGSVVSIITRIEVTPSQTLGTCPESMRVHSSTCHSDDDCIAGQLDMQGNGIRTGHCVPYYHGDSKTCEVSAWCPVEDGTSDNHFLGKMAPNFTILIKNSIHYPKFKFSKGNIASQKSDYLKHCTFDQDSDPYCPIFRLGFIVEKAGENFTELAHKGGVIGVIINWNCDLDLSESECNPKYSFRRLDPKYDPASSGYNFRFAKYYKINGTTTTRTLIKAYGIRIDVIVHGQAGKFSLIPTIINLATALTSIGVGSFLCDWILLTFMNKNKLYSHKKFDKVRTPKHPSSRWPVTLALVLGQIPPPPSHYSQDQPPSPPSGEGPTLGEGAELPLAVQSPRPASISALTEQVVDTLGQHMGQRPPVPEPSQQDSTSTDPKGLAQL

[5] = tested on: P2X4/2a-C430A chimera; conditions: oocytes; supplemental Fig. 3
[6] = target: T4, P2X2a-C430S (Rattus norvegicus, UniProt P49653, C430S); type: cell-based; conditions: HEK293 cells
T4 sequence (P49653 1-472 C430S): T3 sequence (P49653 1-472 C430A) with A430S

[7] = target: T5, P2X2aR (Rattus norvegicus, UniProt P49653); type: cell-based
T5 sequence (P49653 1-472): T3 sequence (P49653 1-472 C430A) with A430C

[8] = tested on: P2X4/2a chimera; type: cell-based, rat; conditions: oocytes
[9] = target: T1, P2X2bR; type: cell-based; conditions: HEK293 cells
[10] = target: T5, P2X2aR; assay: ATP-evoked currents, whole-cell patch clamp, HEK293 cells expressing P2X2aR; type: cell-based
[11] = target: T4, P2X2a-C430S; type: cell-based
[12] = tested on: oocytes and HEK293 cells

mercury
effect on rate of deactivation ([1]; mercury): not significantly affected | sensitivity to mercury ([1]; supplemental Fig. 3): residual mercury-dependent potentiation | effect on ATP concentration-response curve ([2]; 10 μM mercury): did not displace | effect on receptor deactivation ([2]; 10 μM mercury): nor modified receptor deactivation | effect on receptor deactivation ([2]; 10 μM mercury, listed as Mercury): not significantly affected | sensitivity to mercury ([2]; 10 μM): mercury resistant; also recorded: insensitivity | effect on ATP-induced currents ([3]; 10 μM metal pre-applied 1 min and co-applied with 10 μM ATP): inhibited | washout time to attain control currents ([3]; after 10 μM metal): 20 to 30 min | potentiation of ATP-evoked currents ([4]; 10 μM mercury, ATP ~EC15): 3.3 ± 0.7 fold | reversibility of effect ([4]; mercury): totally reversible; also recorded: easily reversible | sensitivity to mercury ([4]; supplemental Fig. 3): residual mercury-dependent potentiation | sensitivity to mercury [5]: insensitivity | increase of ATP-gated currents ([6]; 10 μM metal, ATP ~EC15): 1.9 ± 0.2 fold | effect on the ATP-gated current ([7]; 10 μM metal pre-applied 1 min and co-applied with 30 μM ATP, oocytes): potentiated | potentiation of ATP-evoked currents ([7]; 10 μM metal, 1 min prior and during ATP (~EC15), oocytes): 12.3 ± 2.6 fold | potentiation of response still present after washout ([7]; 20 min after washout of 10 μM metal, oocytes): 35 ± 12% | reversibility of effect on peak current amplitude ([7]; after 10 and 20 min washouts, oocytes): not completely reversible | 10–90% deactivation time ([7]; in the presence of mercury, oocytes): 17.2 ± 2.8 s | decrease in the current amplitude on prolonged washout of the metal ([7]; mercury-induced potentiation, wild type receptor): ~70% | effect on maximal ATP response ([8]; 10 μM mercury): without significantly altering | potentiation of 1 μM ATP-induced current ([8]; 10 μM metal, 1 μM ATP): 3.7 ± 0.8 fold | 10–90% deactivation time ([8]; in the presence of mercury): 104.7 ± 11.5 s | increase of 10–90% deactivation time ([8]; in the presence of mercury): 9 fold | sensitivity to mercury [8]: mercury-sensitive; also recorded: residual mercury-dependent potentiation | increase of ATP-gated currents ([9]; 10 μM metal, ATP ~EC15): 2.5 ± 0.5 fold | increase of ATP-evoked currents ([10]; 10 μM metal, ATP ~EC15): 5.9 ± 1.3 fold | potentiation of ATP-evoked currents ([11]; 10 μM mercury, ATP ~EC15, oocytes): 2.2 ± 0.9 fold | reversibility of effect ([11]; mercury): easily reversible | sensitivity to mercury ([11]; oocytes, supplemental Fig. 3): residual mercury-dependent potentiation

OO [H2O2, hydrogen peroxide]
sensitivity to H2O2 [1]: totally resistant | sensitivity to H2O2 [2]: totally resistant | inhibition of receptor activity ([3]; 1 mM H2O2): 43.8 ± 0.1% | sensitivity to H2O2 [4]: totally resistant | sensitivity to H2O2 ([6]; 1 mM): completely resistant | effect of concentrations larger than 1 mM on cells [12]: cell damage and membrane dissolution | increase of ATP-gated currents ([7]; 0.3 mM H2O2, ATP ~EC15, oocytes): 2.8 ± 0.3 fold | increase of the currents ([8]; 1 mM H2O2): 1.9 ± 0.2 fold | currents remaining increased after washout ([8]; 10 min washout after 1 mM H2O2): 0.3 ± 0.1 fold | sensitivity to H2O2 ([9]; 1 mM): completely resistant | increase of ATP-evoked currents ([10]; 1 mM H2O2, ATP ~EC15): 1.9 ± 0.3 fold | sensitivity to H2O2 ([11]; oocytes): totally resistant
